Target: T1, catL (cathepsin L; rh catL) (Homo sapiens, UniProt P07711)
T1 construct: gene CTSL; incubated on ice 15 min in assay buffer pH 6.0 before use
Assay: fluorogenic protease activity assay
Assay type: biochemical

T1 sequence (P07711 114-288): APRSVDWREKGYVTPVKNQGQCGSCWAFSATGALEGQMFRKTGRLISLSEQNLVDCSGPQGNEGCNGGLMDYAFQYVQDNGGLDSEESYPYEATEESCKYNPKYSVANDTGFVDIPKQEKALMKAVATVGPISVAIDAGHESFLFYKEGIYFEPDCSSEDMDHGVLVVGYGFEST
T1 sequence (P07711 292-333): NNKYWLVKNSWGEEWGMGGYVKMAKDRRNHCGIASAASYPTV

Compound | IC50 [µM]
C[C@@H]1[C@H](O)[C@@H](C)/C=C/C=C/CC/C=C/C=C/C=C/C=C/[C@H](O[C@@H]2O[C@H](C)[C@@H](O)[C@H](N)[C@@H]2O)C[C@@H]2O[C@](O)(C[C@@H](O)[C@H](O)CC[C@@H](O)C[C@@H](O)C[C@@H](O)CC(=O)O[C@H]1C)C[C@H](O)[C@H]2C(=O)O [Nystatin] | ~2
CO[C@H]1/C=C/O[C@@]2(C)Oc3c(C)c(O)c4c(O)c(c(/C=N/N5CCN(C6CCCC6)CC5)c(O)c4c3C2=O)NC(=O)/C(C)=C\C=C\[C@H](C)[C@H](O)[C@@H](C)[C@@H](O)[C@@H](C)[C@H](OC(C)=O)[C@@H]1C [Rifapentine] | ~30

Source: PMC9231362 (Viruses, 2022)
